Source: US20080063668A1, “Nitroimidazole and terconazole composition and method” (priority 2006, published 2008)

How the values were obtained:
Experiment in all cases: Inhibition of bacteria growth, drug dilution tubes, anaerobic
Type in all cases: cell-based
Set-up in all cases: key: (+) for growth; (−) for no growth; (±) for suboptimal growth after an initial observation of growth
[1] = system: Gardnerella vaginalis ATCC 14018
Method: (§1) Serial dilutions of tinidazole and terconazole were prepared by adding measured amounts of each substance to water (both individually and in combination). Seven bacterial organisms that are common pathogens in bacterial vaginosis were grown anaerobically in the medium as listed in Table 4 under a N2/H2/CO2 (85:5:10) head space atmosphere. [table] These cultures were diluted to a 0.5 McFarland standard prior to inoculation of drug dilution tubes. One (1) mL of the 0.5 McFarland preparation was inoculated to an anaerobically prepared test tube containing 0.8 mL of Difco anaerobic medium (DAMM) and 0.2 mL of appropriate diluted antimicrobial or antimicrobial combination for a total of 2 mL. The inoculated tubes were then incubated at 37° C. and monitored daily for growth. Growth was scored with a (+) for growth, (−) for no growth, and (±) for suboptimal growth after an initial observation of growth. Tinidazole is abbreviated as TNZ and terconazole is abbreviated as TER in Tables 5 through 11.

[2] = system: Bacteroides fragilis ATCC 25285
Method: as §1

[3] = system: Mobiluncus curtisii var. curtisii ATCC 35241
Method: as §1

Structure (SMILES): CC(C)N1CCN(c2ccc(OCC3COC(Cn4cncn4)(c4ccc(Cl)cc4Cl)O3)cc2)CC1 (stereo not drawn) [TER, cis-1-[p[[2-(2,4-dichlorophenyl)-2-(1 H-1,2,4-triazol-1-ylmethyl)-1,3-dioxolan-4-yl]methoxy]phenyl]-4-isopropylpiperazine]
- growth ([1]; TER 3.1 μg/ml, DAY 1): (+)
- growth ([1]; TER 3.1 μg/ml, DAY 2): (+)
- growth ([1]; TER 3.1 μg/ml, DAY 3): (+)
- growth ([1]; TER 3.1 μg/ml, DAY 4): (+)
- growth ([1]; TER 3.1 μg/ml, DAY 5): (+)
- growth ([1]; TER 6.2 μg/ml, DAY 1): (+)
- growth ([1]; TER 6.2 μg/ml, DAY 2): (+)
- growth ([1]; TER 6.2 μg/ml, DAY 3): (+)
- growth ([1]; TER 6.2 μg/ml, DAY 4): (+)
- growth ([1]; TER 6.2 μg/ml, DAY 5): (+)
- growth ([1]; TER 12.5 μg/ml, DAY 1): (+)
- growth ([1]; TER 12.5 μg/ml, DAY 2): (+)
- growth ([1]; TER 12.5 μg/ml, DAY 3): (+)
- growth ([1]; TER 12.5 μg/ml, DAY 4): (+)
- growth ([1]; TER 12.5 μg/ml, DAY 5): (+)
- growth ([1]; TER 25 μg/ml, DAY 1): (+)
- growth ([1]; TER 25 μg/ml, DAY 2): (+)
- growth ([1]; TER 25 μg/ml, DAY 3): (+)
- growth ([1]; TER 25 μg/ml, DAY 4): (+)
- growth ([1]; TER 25 μg/ml, DAY 5): (+)
- growth ([1]; TER 50 μg/ml, DAY 1): (+)
- growth ([1]; TER 50 μg/ml, DAY 2): (+)
- growth ([1]; TER 50 μg/ml, DAY 3): (+)
- growth ([1]; TER 50 μg/ml, DAY 4): (+)
- growth ([1]; TER 50 μg/ml, DAY 5): (+)
- growth ([1]; TER 100 μg/ml, DAY 1): (+)
- growth ([1]; TER 100 μg/ml, DAY 2): (+)
- growth ([1]; TER 100 μg/ml, DAY 3): (+)
- growth ([1]; TER 100 μg/ml, DAY 4): (+)
- growth ([1]; TER 100 μg/ml, DAY 5): (+)
- growth ([1]; TER 200 μg/ml, DAY 1): (−)
- growth ([1]; TER 200 μg/ml, DAY 2): (+)
- growth ([1]; TER 200 μg/ml, DAY 3): (+)
- growth ([1]; TER 200 μg/ml, DAY 4): (+)
- growth ([1]; TER 200 μg/ml, DAY 5): (+)
- growth ([1]; TER 400 μg/ml, DAY 1): (−)
- growth ([1]; TER 400 μg/ml, DAY 2): (−)
- growth ([1]; TER 400 μg/ml, DAY 3): (−)
- growth ([1]; TER 400 μg/ml, DAY 4): (−)
- growth ([1]; TER 400 μg/ml, DAY 5): (−)
- growth ([1]; TER 800 μg/ml, DAY 1): (−)
- growth ([1]; TER 800 μg/ml, DAY 2): (−)
- growth ([1]; TER 800 μg/ml, DAY 3): (−)
- growth ([1]; TER 800 μg/ml, DAY 4): (−)
- growth ([1]; TER 800 μg/ml, DAY 5): (−)
- growth ([2]; TER 3.1 μg/ml, DAY 1): (+)
- growth ([2]; TER 3.1 μg/ml, DAY 2): (+)
- growth ([2]; TER 3.1 μg/ml, DAY 3): (+)
- growth ([2]; TER 3.1 μg/ml, DAY 4): (+)
- growth ([2]; TER 3.1 μg/ml, DAY 5): (+)
- growth ([2]; TER 6.2 μg/ml, DAY 1): (+)
- growth ([2]; TER 6.2 μg/ml, DAY 2): (+)
- growth ([2]; TER 6.2 μg/ml, DAY 3): (+)
- growth ([2]; TER 6.2 μg/ml, DAY 4): (+)
- growth ([2]; TER 6.2 μg/ml, DAY 5): (+)
- growth ([2]; TER 12.5 μg/ml, DAY 1): (+)
- growth ([2]; TER 12.5 μg/ml, DAY 2): (+)
- growth ([2]; TER 12.5 μg/ml, DAY 3): (+)
- growth ([2]; TER 12.5 μg/ml, DAY 4): (+)
- growth ([2]; TER 12.5 μg/ml, DAY 5): (+)
- growth ([2]; TER 25 μg/ml, DAY 1): (+)
- growth ([2]; TER 25 μg/ml, DAY 2): (+)
- growth ([2]; TER 25 μg/ml, DAY 3): (+)
- growth ([2]; TER 25 μg/ml, DAY 4): (+)
- growth ([2]; TER 25 μg/ml, DAY 5): (+)
- growth ([2]; TER 50 μg/ml, DAY 1): (+)
- growth ([2]; TER 50 μg/ml, DAY 2): (+)
- growth ([2]; TER 50 μg/ml, DAY 3): (+)
- growth ([2]; TER 50 μg/ml, DAY 4): (+)
- growth ([2]; TER 50 μg/ml, DAY 5): (+)
- growth ([2]; TER 100 μg/ml, DAY 1): (+)
- growth ([2]; TER 100 μg/ml, DAY 2): (+)
- growth ([2]; TER 100 μg/ml, DAY 3): (+)
- growth ([2]; TER 100 μg/ml, DAY 4): (+)
- growth ([2]; TER 100 μg/ml, DAY 5): (+)
- growth ([2]; TER 200 μg/ml, DAY 1): (−)
- growth ([2]; TER 200 μg/ml, DAY 2): (−)
- growth ([2]; TER 200 μg/ml, DAY 3): (+)
- growth ([2]; TER 200 μg/ml, DAY 4): (+)
- growth ([2]; TER 200 μg/ml, DAY 5): (+)
- growth ([2]; TER 400 μg/ml, DAY 1): (−)
- growth ([2]; TER 400 μg/ml, DAY 2): (−)
- growth ([2]; TER 400 μg/ml, DAY 3): (−)
- growth ([2]; TER 400 μg/ml, DAY 4): (−)
- growth ([2]; TER 400 μg/ml, DAY 5): (−)
- growth ([2]; TER 800 μg/ml, DAY 1): (−)
- growth ([2]; TER 800 μg/ml, DAY 2): (−)
- growth ([2]; TER 800 μg/ml, DAY 3): (−)
- growth ([2]; TER 800 μg/ml, DAY 4): (−)
- growth ([2]; TER 800 μg/ml, DAY 5): (−)
- growth ([3]; TER 3.1 μg/ml, DAY 1): (+)
- growth ([3]; TER 3.1 μg/ml, DAY 2): (+)
- growth ([3]; TER 3.1 μg/ml, DAY 3): (+)
- growth ([3]; TER 3.1 μg/ml, DAY 4): (+)
- growth ([3]; TER 3.1 μg/ml, DAY 5): (+)
- growth ([3]; TER 6.2 μg/ml, DAY 1): (+)
- growth ([3]; TER 6.2 μg/ml, DAY 2): (+)
- growth ([3]; TER 6.2 μg/ml, DAY 3): (+)
- growth ([3]; TER 6.2 μg/ml, DAY 4): (+)
- growth ([3]; TER 6.2 μg/ml, DAY 5): (+)
- growth ([3]; TER 12.5 μg/ml, DAY 1): (+)
- growth ([3]; TER 12.5 μg/ml, DAY 2): (+)
- growth ([3]; TER 12.5 μg/ml, DAY 3): (+)
- growth ([3]; TER 12.5 μg/ml, DAY 4): (+)
- growth ([3]; TER 12.5 μg/ml, DAY 5): (+)
- growth ([3]; TER 25 μg/ml, DAY 1): (+)
- growth ([3]; TER 25 μg/ml, DAY 2): (+)
- growth ([3]; TER 25 μg/ml, DAY 3): (+)
- growth ([3]; TER 25 μg/ml, DAY 4): (+)
- growth ([3]; TER 25 μg/ml, DAY 5): (+)
- growth ([3]; TER 50 μg/ml, DAY 1): (+)
- growth ([3]; TER 50 μg/ml, DAY 2): (+)
- growth ([3]; TER 50 μg/ml, DAY 3): (+)
- growth ([3]; TER 50 μg/ml, DAY 4): (+)
- growth ([3]; TER 50 μg/ml, DAY 5): (+)
- growth ([3]; TER 100 μg/ml, DAY 1): (+)
- growth ([3]; TER 100 μg/ml, DAY 2): (+)
- growth ([3]; TER 100 μg/ml, DAY 3): (+)
- growth ([3]; TER 100 μg/ml, DAY 4): (+)
- growth ([3]; TER 100 μg/ml, DAY 5): (+)
- growth ([3]; TER 200 μg/ml, DAY 1): (−)
- growth ([3]; TER 200 μg/ml, DAY 2): (+)
- growth ([3]; TER 200 μg/ml, DAY 5): (+)
- growth ([3]; TER 400 μg/ml, DAY 1): (−)
- growth ([3]; TER 400 μg/ml, DAY 2): (−)
- growth ([3]; TER 400 μg/ml, DAY 3): (−)
- growth ([3]; TER 400 μg/ml, DAY 4): (−)
- growth ([3]; TER 400 μg/ml, DAY 5): (+)
- growth ([3]; TER 800 μg/ml, DAY 1): (−)
- growth ([3]; TER 800 μg/ml, DAY 2): (−)
- growth ([3]; TER 800 μg/ml, DAY 3): (−)
- growth ([3]; TER 800 μg/ml, DAY 4): (−)
- growth ([3]; TER 800 μg/ml, DAY 5): (+)
